According to patent US20110130346A1, “PEPTIDE CONJUGATES FOR DELVERY OF BIOLOGICALLY ACTIVE COMPOUNDS” (ISIS INNOVATION LIMITED, priority 2008, published 2011):

Assays:
Assay type in all cases: in vivo, mdx mice
[1] = tested on: exon and intron 23 of the dystrophin gene; assay: Example 2: intramuscular injection, Western blot of dystrophin; conditions: 5 ug intramuscular
Description: (§1) For intramuscular studies the TA muscle of each experimental mdx mouse was injected with a […] dose of PNA and PNA-peptide conjugates with saline at a final concentration of 125 μg/ml. For systemic intravenous injections, Various amount of PNA or PNA-peptide conjugates in 80 μl saline buffer were injected into tail vein of mdx mice at the final dose of 25 mg/kg, 50 mg/kg and 100 mg/kg, respectively. The animals were killed at various time points after injection by CO2 inhalation and tissues were removed and snap-frozen in liquid nitrogen-cooled isopentane and stored at −80° C.
(§2) The collected sections were placed in a 1.5 ml polypropylene eppendorf tube (Anachem, UK) on dry ice. The tissue sections were lysed with 150 μl protein extraction buffer containing 125 mmol/l Tris-HCl (pH=6.8), 10% sodium dodecyl sulphate, 2 mol/l urea, 20% glycerol, and 5% 2-mercaptoethanol. […] The supernatant was collected and the protein concentration was quantified by Bradford assay (Sigma, UK). […] The bound primary antibody was detected by horseradish peroxidise-conjugated rabbit anti-mouse IgGs and the ECL Western Blotting Analysis system (Amersham Pharmacia Biosciences, UK). The intensity of the bands obtained from treated mdx muscles was measured by Image J software; the quantification is based on band intensity and area, and is compared with that from normal muscles of C57BL6 mice.

[2] = tested on: exon and intron 23 of the dystrophin gene; assay: Example 2: intramuscular injection into TA muscle, dystrophin-positive fibres by immunohistochemistry
From the text: Here we aim to evaluate the potential of PNA AOs as splice correcting therapeutic agents for DMD, by studying their activity under a range of conditions in mdx mice carrying a nonsense mutation in exon 23 of the dystrophin gene. PNAs and PNA-pepide conjugates were studied following intramuscular delivery into adult (6-8 week old) mdx tibialis anterior (TA) muscles or via systemic intravenous tail vein delivery in mdx mice unless otherwise stated.
as §1
Sections of 8 μm were cut from at least two-thirds of the muscle length of TA, quadriceps, gastrocnemius, biceps, abdominal wall and diaphragm muscles and cardiac muscle at 100 μm intervals. The sections were then examined for dystrophin expression with a polyclonal antibody 2166 against the dystrophin carboxyl-terminal region. The maximum number of dystrophin-positive fibres in one section was counted using the Zeiss AxioVision fluorescence microscope. The intervening muscle sections were collected either for RT-PCR analysis and Western blot or as serial sections for immunohistochemistry. Polyclonal antibodies were detected by goat-anti-rabbit IgGs Alexa Fluro 594 (Molecular Probe, UK). […]

[3] = tested on: exon and intron 23 of the dystrophin gene; assay: Example 2: systemic intravenous injection, Western blot of dystrophin; conditions: intravenous 25, 50 and 100 mg/kg
From the text: To develop AO splice correction therapy for DMD it is essential to establish effective systemic dystrophin correction since DMD is a systemic disease affecting all skeletal muscles, including the diaphragm, and cardiac muscle. Other AO chemistries, including 2′OMePS and PMO chemistries, have been reported to yield variable dystrophin splice correction following intravenous systemic delivery in mdx mice, with high systemic doses being required to detect appreciable efficacy. Here we wished to evaluate the potential of neutral PNA AOs for systemic splice correction in body-wide muscles, and initially evaluated a dose-response using three intravenous single PNA doses of 25, 50 and 100 mg/kg administered to 6 week old mdx mice via tail vein injections. […]
as §2, with “ice.” for “ice. The tissue sections were lysed with 150 μl protein extraction buffer containing 125 mmol/l Tris-HCl (pH=6.8), 10% sodium dodecyl sulphate, 2 mol/l urea, 20% glycerol, and 5% 2-mercaptoethanol.”

Substance: 5′-ggccaaaccteggcttacct-3′ [PNA]
- level of dystrophin protein restored (Western blot) ([1]; 8 week time point): about 20 % of normal levels
- dystrophin protein (Western blot) ([1]; 20 weeks post administration): considerably reduced levels
- number of dystrophin-positive fibres ([2]; 12-month old mdx mice, 5 ug intramuscular into TA, two weeks): 388±24
- persistence of splice correction effect ([2]; two month old mdx mice, 5 ug intramuscular): greater than 20 weeks
- number of dystrophin-positive fibres ([2]; two month old mdx mice, 5 ug intramuscular, 8 week time point (peak)): greater than 650
- dystrophin protein (Western blot) [3]: Under detectable level
